From patent US20090227025A1, “Ex vivo human lung/immune system model using tissue engineering for studying microbial pathogens with lung tropism” (priority 2003, published 2009) come the findings set out here.

In assay [1] the test system is influenza A virus. In kind it is cell-based.
Assay [2] has as its system influenza A virus A/Marton/43 (H1N1). The class given is cell-based.

Each structure is given as a SMILES string. Where “and” joins values, the source holds several entries; their conditions need not be identical. Identical values can stand only once.

For the compound `CC(=O)N[C@H]1[C@H]([C@H](O)[C@H](O)CO)OC(C(=O)O)=C[C@@H]1NC(=N)N` [Neuraminidase inhibitor, 4-guanidino-2,4-dideoxy-2,3-dehydro-N-acetylneuraminic acid], the “virus localisation in treated TE cultures (staining, FIGS. 12A-F)” value in assay [1] is “accumulation of clumped virus”. The average virus titer in assay [2] is 4.93 × 10^5 and 2.7 × 10^5.
